Where two headings read alike, the source gives them in different places.
How the values were obtained:
[1] = biological target: T1, cholesterol esterase (cholesterol ester hydrolase; CEH) (Bos taurus, UniProt P30122); experiment: Inhibition of cholesteryl ester formation by cholesterol esterase (CEH), in vitro; format: biochemical, bovine
T1 construct: purchased Sigma C-1892; host or cells: bovine pancreas
T1 sequence (P30122 19-597): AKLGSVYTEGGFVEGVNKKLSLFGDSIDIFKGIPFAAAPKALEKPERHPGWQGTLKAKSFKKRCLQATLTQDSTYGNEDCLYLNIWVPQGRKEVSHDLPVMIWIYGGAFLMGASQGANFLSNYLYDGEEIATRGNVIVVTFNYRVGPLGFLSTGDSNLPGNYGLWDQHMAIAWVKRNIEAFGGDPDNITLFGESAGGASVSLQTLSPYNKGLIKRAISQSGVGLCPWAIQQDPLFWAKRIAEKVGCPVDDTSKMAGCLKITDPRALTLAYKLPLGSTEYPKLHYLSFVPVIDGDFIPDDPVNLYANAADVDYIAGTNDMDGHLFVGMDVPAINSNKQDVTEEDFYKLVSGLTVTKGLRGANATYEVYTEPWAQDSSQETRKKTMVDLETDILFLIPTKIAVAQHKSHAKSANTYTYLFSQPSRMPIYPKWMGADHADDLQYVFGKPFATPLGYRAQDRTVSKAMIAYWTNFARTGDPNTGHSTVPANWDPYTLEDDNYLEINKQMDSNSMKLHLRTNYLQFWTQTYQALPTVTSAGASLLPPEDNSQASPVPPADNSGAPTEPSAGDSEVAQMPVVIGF
Procedure: The ability of the compounds of this invention to inhibit the formation of cholesteryl esters and thereby interfere with and prevent assimilation of cholesterol into the lymphatic system and ultimately the blood stream was established by incubating the compounds at 37° C. with a mixture of cholesterol and oleic acid in the presence of buffered cholesterol esterase [([…]) Sigma No. C-1892, from bovine pancreas] and measuring the amount of ester formed, according to the procedure of Field, J. of Lipid Research, 25 389 (1984).

[2] = test system: Absorption of ^14 C-Chol.; experiment: In vivo cholesterol absorption study in normal rats, serum radioactivity after oral [4-^14 C] cholesterol; conditions: suspended in olive oil, normal rat, 6 hr
Procedure: The in vivo cholesterol absorption studies were conducted in normal rats by oral administration of the compound being tested suspended in olive oil followed by oral administration of [4-^14 C] cholesterol in propylene glycol, otherwise following the procedure of Cayen et al., J. Lipid Res. 20 162 (1979). The serum radioactivity was measured at six hours after dosing. The results of this study are reported in the following Table, where available, as percent decrease compared to control.

[3] = 37° C., cholesterol and oleic acid, buffered cholesterol esterase from bovine pancreas, read-out: IC50 Against CEH (concentration that inhibits one-half of the ester formation)

| SMILES | IC50 [1] [µM] | Effects on Absorption of ^14 C-Chol., percent decrease compared to control ([2]; 100 mg/kg) [%] | Effects on Absorption of ^14 C-Chol., percent decrease compared to control ([2]; 250 mg/kg) [%] | IC50 [1, 3] [µM] |
| --- | --- | --- | --- | --- |
| CCCCCCCCNC(=O)Oc1ccccc1-c1ccccc1 [Example 1, Octylcarbamic acid[1.1'-biphenyl]-2-yl ester] | 1.5 |  |  |  |
| CCCCCCCN(Cc1ccc(CC(C)(C)C)cc1)C(=O)Oc1ccccc1-c1ccccc1 [Example 2, [[4-(2,2-Dimethylpropyl)phenyl]methyl]heptylcarbamic acid[1,1'-biphenyl]-2-yl ester] | 100 |  |  |  |
| O=C(NC1CCCCC1)Oc1ccccc1-c1ccccc1 [Example 3, Cyclohexylcarbamic acid[1,1'-biphenyl]-2-yl ester] | 5 | 21 |  |  |
| O=C(NCC1CCCCC1)Oc1ccccc1-c1ccccc1 [Example 4, (Cyclohexylmethyl)carbamic acid[1,1'-biphenyl]-2-yl ester] | 3 | 21 |  |  |
| O=C(NCCCCc1ccccc1)Oc1ccccc1-c1ccccc1 [Example 5, (4-Phenylbutyl)carbamic acid[1,1'-biphenyl]-2-yl ester] | 0.25 |  | 46 |  |
| CC1(C)CCCN(C(=O)Oc2ccccc2-c2ccccc2)C1 [Example 6, 3,3-Dimethyl-1-piperidinecarboxylic acid[1,1'-biphenyl]-2-yl ester] |  |  |  | 38 |
| O=C(Oc1ccccc1-c1ccccc1)N1CCCCC1 [Example 7, 1-Piperidinecarboxylic acid[1,1'-biphenyl]-2-yl ester] |  |  | 19 | 0.08 |
| CC1CCN(C(=O)Oc2ccccc2-c2ccccc2)CC1 [Example 8, 4-Methyl-1-piperidinecarboxylic acid[1,1'-biphenyl]-2-yl ester] |  |  |  | 0.8 |
| O=C(Oc1ccccc1-c1ccccc1)N1CCC(c2ccccc2)CC1 [Example 9, 4-Phenyl-1-piperidinecarboxylic acid[1.1'-biphenyl]-2-yl ester] |  | 11 |  | 1.9 |
| O=C(Oc1ccccc1-c1ccccc1)N1CCOCC1 [Example 10, 4-Morpholinecarboxylic acid[1.1'-biphenyl]-2-yl ester] | 26 |  |  |  |
| O=C(Oc1ccccc1-c1ccccc1)N1CCSCC1 [Example 11, 4-Thiomorpholinecarboxylic acid[1.1'-biphenyl]-2-yl ester] |  | 21 |  | 1.2 |
| CN1CCN(C(=O)Oc2ccccc2-c2ccccc2)CC1 [Example 12, 4-Methyl-1-piperazinecarboxylic acid[1,1'-biphenyl]-2-yl ester] | 25 |  |  |  |
| O=C(Oc1ccccc1-c1ccccc1)N1CCN(c2ccccc2)CC1 [Example 13, 4-Phenyl-1-piperazinecarboxylic acid[1,1'-biphenyl]-2-yl ester] |  |  |  | 53 |

Source: patent US5190940A, “Cholesterol ester hydrolase inhibitors” (American Home Products Corporation, priority 1991, dated 1993)
